In US20170119742A1, “MEDICAMENT FOR PREVENTING AND/OR TREATING STRESS DISEASES” (ONO PHARMACEUTICAL CO., LTD., priority 2014, published 2017):

Tests used:
brain TSPO = molecular target: T1, brain TSPO (Rattus norvegicus, UniProt P16257); test: Comparison of radiotracer in rat ex vivo brain occupancy (Biological example 5); conditions: po, rat cerebral cortex, 3 h; for receptor occupancy at 0.03 mg/kg: 0.03 mg/kg oral; for receptor occupancy at 0.1 mg/kg: 0.1 mg/kg oral; for receptor occupancy at 0.3 mg/kg: 0.3 mg/kg oral; for receptor occupancy at 1 mg/kg: 1 mg/kg oral; for receptor occupancy at 3 mg/kg: 3 mg/kg oral
T1 construct: measured by using brain (cerebral cortex and hippocampus) homogenates of the vehicle treated group and the compound of the present invention treated group; from tissue; host or cells: Wistar rat brain (cerebral cortex, hippocampus) homogenate
Experimental: Next, brain TSPO occupancy of the compound of the present invention was measured by using brain (cerebral cortex and hippocampus) homogenates of the vehicle treated group and the compound of the present invention treated group, using [^3H] PK11195 as a radiotracer. PK11195 was dissolved in dimethyl sulfoxide (DMSO) to prepare a 4 mmol/L solution. After preparing an ethanol solution of 100 nmol/L [^3H] PK11195 (PerkinElmer, Inc.), the solution was diluted 50-fold with 50 mmol/L HEPES buffer (Sigma-Aldrich Co.). In the case of determining the total binding amount of the radiotracer, 50 mmol/L HEPES (99 μL) and DMSO (1 μL) were added to Nunc MiniSorp (trade name, 12×75 mm, Thermo Fisher Scientific Inc.). In the case of determining the nonspecific binding amount of the radiotracer, 4 mmol/L PK11195 (1 μL) was substituted for DMSO (1 μL). The brain homogenate (50 μL) derived from cerebral cortex or the hippocampus was added to the tube. Then [^3H] PK11195 (50 μL) (cerebral cortex: final concentration 0.4532 nmol/L, hippocampus: final concentration 0.4520 nmol/L) was added and stirred, and the mixture was incubated for 90 minutes at 4° C. After completion of the reaction, ice-cold 50 mmol/L HEPES (2 mL) was added to the tube, and then the mixture was suction filtered on a glass fiber filter (GF/B, Brandel Inc.) which pretreated with 0.3 w/v % polyethyleneimine (Sigma-Aldrich Co.), to collect the brain homogenate. After drying the glass fiber filter, the absorbing part of the brain homogenate was transferred to a liquid scintillation vial. ACS-II scintillation cocktail (7 mL) was added to the liquid scintillation vial and stirred, and the radioactivity was measured by liquid scintillation counter (TRI-CARB2900TR, PerkinElmer Life and Analytical Sciences Inc.). Specific binding amount (dpm) of [3H] PK11195 in each brain homogenate was set to a value obtained by subtracting the nonspecific binding amount (dpm) from the total binding amount (dpm). TSPO occupancy (%) in cerebral cortex and hippocampus, of the compound of the present invention treated group, were calculated according to the following equation.
TSPO Occupancy (%)=(1−X/Y)×100
X: Specific binding amount (dpm) in each brain homogenate Y: Average value (dpm) of specific binding amount in control group
The vehicle (0.5 w/v % methylcellulose 400 cP solution) or the compound of the present invention (0.03, 0.1, 0.3, 1 or 3 mg/kg) was orally administered to male Sic: Wistar rats (Japan SLC, Inc., at the time of use: 11 weeks old). After 3 hours of the administration, in the same manner as Biological example 1, brain TSPO occupancy of the compound of the present invention relative to the specific binding of the vehicle control group was measured by measuring the specific binding amount of [^3H] PK11195 or [^3H] PBR28 (Sekisui Medical Co., Ltd.) of brain (cerebral cortex) homogenates (n=8 in each group). As a result, the average TSPO occupancy of 0.03, 0.1, 0.3, 1 and 3 mg/kg group of the compound of the present invention was […] in the cerebral cortex when [^3H] PK11195 was used as a radiotracer. On the other hand, the average TSPO occupancy was 6.5, 11.5, 40.4, 77.7 and 90.2% in the cerebral cortex when [^3H] PBR28 was used as a radiotracer. […] PBR28 or [^3H] PK11195 radiotracer.

[1] = system: female diarrhea-type IBS patients; test: HAM-D (Hamilton Depression scale) in the clinical trial of Biological example 10; assay type: in vivo, human; conditions: 60 mg treatment
Experimental: (§1) In the clinical trial of Biological example 10, the therapeutic effect of the compound of the present invention 60 mg treatment on depression and anxiety-related diseases were evaluated using PSS (Perceived Stress Scale) (refer to Journal of Health and Social Behavior, 24, 386-396, 1983), HAM-A (Hamilton Anxiety Scale) (refer to The British journal of medical psychology, 32, 50-55, 1959) and HAM-D (Hamilton Depression scale) (refer to Journal of Neurology, Neurosurgery and Psychiatry, 23, 56-62, 1960) as rating scales.

[2] = system: female diarrhea-type IBS patients; test: HAM-A (Hamilton Anxiety Scale) in the clinical trial of Biological example 10; assay type: in vivo, human; conditions: 60 mg treatment
Experimental: as §1

[3] = system: female diarrhea-type IBS patients; test: PSS (Perceived Stress Scale) in the clinical trial of Biological example 10; assay type: in vivo, human; conditions: 60 mg treatment
Experimental: as §1

[4] = Patient B, baseline 23, 4th week

receptor occupancy at 0.03 mg/kg (brain TSPO; [3H] PBR28): 6.5%
receptor occupancy at 0.03 mg/kg (brain TSPO; [3H] PK11195): -1.3%
receptor occupancy at 0.1 mg/kg (brain TSPO; [3H] PBR28): 11.5%
receptor occupancy at 0.1 mg/kg (brain TSPO; [3H] PK11195): 14.9%
receptor occupancy at 0.3 mg/kg (brain TSPO; [3H] PBR28): 40.4%
receptor occupancy at 0.3 mg/kg (brain TSPO; [3H] PK11195): 48.1%
receptor occupancy at 1 mg/kg (brain TSPO; [3H] PBR28): 77.7%
receptor occupancy at 1 mg/kg (brain TSPO; [3H] PK11195): 80.9%
receptor occupancy at 3 mg/kg (brain TSPO; [3H] PBR28): 90.2%
receptor occupancy at 3 mg/kg (brain TSPO; [3H] PK11195): 91.3%
SMILES: COc1cc(Cl)ccc1[C@H]1c2[nH]c3cccc(F)c3c2C2(CC2)CN1C(C)=O [the compound of the present invention, (1S)-2-acetyl-1-(4-chloro-2-methoxyphenyl)-5-fluoro-1,2,3,9-tetrahydrospiro[β-carboline-4,1′-cyclopropane]]
HAM-D score, 4th week ([1]; Patient D, baseline 18): 2
HAM-D score, Amount of change from baseline ([1]; Patient D, baseline 18, 4th week): −16
HAM-D score, 4th week ([1]; Patient E, baseline 13): 3
HAM-D score, Amount of change from baseline ([1]; Patient E, baseline 13, 4th week): −10
HAM-D score, 4th week ([1]; Patient F, baseline 20): 13
HAM-D score, Amount of change from baseline ([1]; Patient F, baseline 20, 4th week): −7
HAM-D score, 4th week ([1]; Patient G, baseline 13): 4
HAM-D score, Amount of change from baseline ([1]; Patient G, baseline 13, 4th week): −9
HAM-A score, 4th week ([2]; Patient A, baseline 18): 4
HAM-A score, Amount of change from baseline ([2]; Patient A, baseline 18, 4th week): −14
HAM-A score, 4th week ([2]; Patient B, baseline 23): 1
HAM-A score, Amount of change from baseline [2, 4]: −22
HAM-A score, 4th week ([2]; Patient D, baseline 22): 4
HAM-A score, Amount of change from baseline ([2]; Patient D, baseline 22, 4th week): −18
HAM-A score, 4th week ([2]; Patient E, baseline 18): 5
HAM-A score, Amount of change from baseline ([2]; Patient E, baseline 18, 4th week): −13
PSS score, 4th week ([3]; Patient A, baseline 35): 19
PSS score, Amount of change from baseline ([3]; Patient A, baseline 35, 4th week): −16
PSS score, 4th week ([3]; Patient B, baseline 23): 13
PSS score, Amount of change from baseline [3, 4]: −10
PSS score, 4th week ([3]; Patient C, baseline 18): 6
PSS score, Amount of change from baseline ([3]; Patient C, baseline 18, 4th week): −12
